86 molecules from article PMC5834442, “Identifying inhibitors of the Leishmania inositol phosphorylceramide synthase with antiprotozoal activity using a yeast-based assay and ultra-high throughput screening platform” (Scientific Reports, 2018) can be followed below.

Bounds are passed on as bounds.

For the test, the system named is L. donovani (MHOM/SD/62/1S-CL2D, LdBOB) axenic amastigotes. The test is described as follows: Leishmania donovani axenic amastigote dose response assay (resazurin). The test is classed as cell-based. To be noted: -logIC50 mol against L. donovani (LdBOB) axenic amastigotes, read-out: pIC50 Axenic (converted). (Alamar Blue is a resazurin reagent that responds to reducing activity.)
Take `Nc1nonc1-c1nc2c(-c3cccc(F)c3)nccc2n1C1CCNCC1` [IS203450-048A1]: the IC50 is 40.7 µM.

In the case of `CC(=O)N1N=C(COc2ccccc2Br)OC1C=Cc1ccccc1` (centres unmarked) [ST/1451035], the IC50 was more than 50 µM.

As for `Cc1ccnc2nc(C(=O)N3CCCSC3=Nc3cccc(C(F)(F)F)c3)nn12` [ST/682329], the IC50 was 31.6 µM.

In the case of `CCOc1nc2ccccc2nc1NS(=O)(=O)c1ccccc1` [ST/646349], the IC50 was 22.9 µM.

On to `O=C1CCc2cc(-c3csc(-c4ccsc4)n3)ccc2N1` [ST/1544102], for which the IC50 is more than 50 µM.

In the case of `O=S(=O)(Nc1cccc2nsnc12)c1ccccc1` [ST/663705], the IC50 was 39.8 µM.

For the molecule `O=C(NC1=NN(c2ccc(Cl)c(Cl)c2)CC1)c1ncccn1` [N7030-10-104], the IC50 was more than 50 µM.

With `O=S(=O)(Nc1ccccc1CN1CCC(F)(F)C1)c1ccc(Cl)c(Cl)c1` [DS105792-004A16B1], the IC50 is 22.4 µM.

`O=C(Nc1ccon1)c1cc2c(s1)CCCCCC2` [ST/1100321]: the IC50 was 19.5 µM.

Regarding `COc1ccccc1-c1nc(-c2ccc(O)c(C(N)=O)c2)cs1` [ST/1261284], the IC50 was 33.1 µM.

Turning to `Nc1ccc(S(=O)(=O)Nc2ccccc2Oc2ccc(Cl)cc2Cl)cc1` [SC/79553], the IC50 is 10.5 µM.

Take `Cc1cccn2c(=O)c(C(=O)NCc3ccncc3)c(O)nc12` [ST/1129403]: the IC50 is more than 50 µM.

`O=C(c1ccccc1)N1C(=O)C(c2ccccc2)Oc2ccccc21` (centres unmarked) [ST/629481]: the IC50 was 24.5 µM.

With `Brc1ccc(OCc2nc3ccccc3[nH]2)cc1` [ST/839801], the IC50 is 49 µM.

Take `CCc1noc2nc(C)nc(NC3CCCCCC3)c12` [ST/1113587]: the IC50 was 46.8 µM.

`Cc1cc(-c2nc3cc(Cl)ccc3o2)ccc1N` [ST/880430]: the IC50 is 26.9 µM.

On to `c1ccc2oc(-c3ccnc4nncn34)cc2c1` [ST/1803771], for which the IC50 is more than 50 µM.

As to `Cc1cc(C(=O)N(C2=NC(C)CS2)c2ccc(Cl)cc2)no1` (centres unmarked) [ST/807832], the IC50 is more than 50 µM.

Take `CNC(=O)CN(C)c1nc(-c2cccs2)nc2sc(C)c(C)c12` [ST/1245806]: the IC50 was more than 50 µM.

As for `C=CCNc1nc(N)c([N+](=O)[O-])c(Nc2cccc(F)c2)n1` [ST/892571], the IC50 is more than 50 µM.

Take `CC(=O)N1N=C(c2ccccc2Cl)OC1COc1ccc(Cl)cc1` (centres unmarked) [ST/1451125]: the IC50 is 15.8 µM.

With `OC(Cn1cncn1)(c1ccc(F)cc1F)C1CCCS1` (centres unmarked) [JJP/1818/3], the IC50 was more than 50 µM.

For the molecule `Nc1ccc(-c2nc3cc(Cl)cc(Cl)c3o2)cc1` [ST/525525], the IC50 is 49 µM.

Take `O=C(NCc1ccccc1)c1sccc1NS(=O)(=O)c1ccccc1` [RF44798-098A22]: the IC50 was 21.4 µM.

In the case of `CC1CCc2c(sc(NC(=O)c3cccs3)c2C#N)C1` (centres unmarked) [SC/95708], the IC50 is more than 50 µM.

With `O=C(c1ccco1)c1cn(Cc2ccc(F)cc2)c2ccccc12` [ST/727705], the IC50 is 28.8 µM.

Turning to `CSc1nsc(NC(=O)Nc2ccc(Cl)cc2)n1` [ST/905433], the IC50 was 30.2 µM.

As for `Cc1ccc(C2=NN(S(=O)(=O)c3ccc(Cl)cc3F)C(C)C2)cc1` (centres unmarked) [U20197/52/94], the IC50 was more than 50 µM.

Take `O=C(c1ccc(Cl)cc1)N1CCCn2c1nc1ccccc1c2=O` [ST/1938375]: the IC50 was more than 50 µM.

`Fc1ccc(-c2nc(-c3cccs3)[nH]c2-c2ccncc2)cc1` [JMS-15898-298-1]: the IC50 was 20.9 µM.

For the molecule `CCc1ccccc1Oc1cncc(-c2nc3ccccc3[nH]2)n1` [ST/1138848], the IC50 was more than 50 µM.

For `CCc1ccccc1NC(=O)c1cc(-c2ccc(Cl)cc2)oc1C` [ST/1545686], the IC50 was more than 50 µM.

For the molecule `Fc1ccc(-c2nn3c(OCC(F)(F)F)cccc3c2-c2ccncc2)cc1` [U12546/102/3], the IC50 was 13.5 µM.

As for `CCn1ncc2c(N[C@H]3CCCC[C@H]3C(=O)O)c(C(=O)NCc3ccccc3)cnc21` [R10565/35/4], the IC50 is more than 50 µM.

Turning to `COCC(C)NC(=O)c1c(O)nc2c(C)cccn2c1=O` (centres unmarked) [ST/1131522], the IC50 is more than 50 µM.

Regarding `Cc1ccccc1S(=O)(=O)N1CCN(c2nccc(-c3cccs3)n2)CC1` [ST/1415177], the IC50 was 21.9 µM.

In the case of `Cc1ccccc1NC(=O)COc1ccccc1NS(=O)(=O)c1cccs1` [N6862-82-2], the IC50 was more than 50 µM.

`CN(C)CCNc1ccc2ncc(-c3ccc4ccccc4c3)n2n1` [ST/668081]: the IC50 was more than 50 µM.

Consider `CN1CCN(c2ccc3ncc(-c4cccc(NC(=O)Cc5cccs5)c4)n3n2)CC1` [R11466/151/4], for which the IC50 was more than 50 µM.

On to `CCOc1cc2c(cc1S(=O)(=O)c1ccc(COc3ccc(F)cc3)cc1)CCN(C)CC2` [AL101938-139A1], for which the IC50 was 31.6 µM.

For the molecule `O=C(Nc1ccc(F)c(Cl)c1)c1cc(-c2ccc(O)cc2)on1` [ST/1440432], the IC50 was 10.5 µM.

Regarding `COc1ccc(Cl)cc1NC(=O)Nc1cccc(F)c1` [SC/109667], the IC50 is 11.5 µM.

For `O=C(Nc1c(Br)c(C2CC2)nn1-c1ccccc1)C(Cl)(Cl)Cl` [SC/96415], the IC50 was 20.4 µM.

As to `O=c1c(O)c(-c2ccccc2)oc2cc(O)cc(O)c12` [ST/2097267], the IC50 was 20.4 µM.

As to `Fc1ccc(CNc2ncc(-c3ccncc3)c(-c3ccoc3)n2)cc1` [ST/945994], the IC50 was more than 50 µM.

Regarding `N=c1nc2n(c(=N)[nH]1)NC(c1ccc(Cl)cc1)=CS2` [ST/1850161], the IC50 is 47.9 µM.

As for `O=C(NCc1ccco1)c1ccccc1NS(=O)(=O)c1cccs1` [ST/662660], the IC50 is 20.4 µM.

Consider `Cc1cc(C)n2nc(S(=O)(=O)Nc3c(Cl)cccc3Cl)nc2n1` [ST/833860], for which the IC50 was 41.7 µM.

With `O=C(Nc1cc(Cl)c(O)c(Cl)c1)c1ccc(Br)cc1` [ST/869684], the IC50 was 17.8 µM.

With `O=C(Nc1ccccc1C(=O)NCc1ccc(Cl)cc1)c1ccco1` [ST/771851], the IC50 was more than 50 µM.

Regarding `Cc1cccc(C(=O)Nc2nc(-c3cccs3)ns2)c1` [ST/1197585], the IC50 is 30.9 µM.

Consider `CC1CSC(N(C(=O)CN2CSCC2=O)c2ccc(Cl)cc2)=N1` (centres unmarked) [ST/812474], for which the IC50 was more than 50 µM.

Consider `O=C(NCc1ccc2c(c1)OCO2)c1ccccc1NS(=O)(=O)c1cccs1` [ST/1217724], for which the IC50 was 11.5 µM.

In the case of `O=C1CCc2cc(-c3csc(-c4cccnc4)n3)ccc2N1` [R9196/29/59], the IC50 is more than 50 µM.

On to `OC(CCC1CCCCC1)(Cn1ccnc1)c1ccc(F)cc1F` (centres unmarked) [JJP/1777/3], for which the IC50 is 14.1 µM.

Turning to `Cc1oc2cc(O)ccc2c(=O)c1-c1nc2ccccc2s1` [ST/517902], the IC50 was more than 50 µM.

For `CC(c1ccccc1)N1Cc2cccc(C(=O)O)c2C1=O` (centres unmarked) [ST/641236], the IC50 was more than 50 µM.

As for `CCN(C(=O)Cc1c(C(=O)O)[nH]c2ccccc12)c1cc(C)ccc1C` [ST/728445], the IC50 was 18.2 µM.

Take `FC(F)(F)c1ccc(Nc2nc(-c3ccncc3)cs2)cc1` [ST/510927]: the IC50 is 27.5 µM.

Consider `O=C(Nc1nnc(C(F)(F)F)s1)c1ccc(Br)s1` [ST/782334], for which the IC50 is 11.7 µM.

As for `Cc1cc(O)c(Cl)c(C)c1NS(=O)(=O)c1ccc(Br)cc1` [ST/835722], the IC50 was 26.9 µM.

With `CCOc1cc(S(=O)(=O)N2CCN(Cc3ccc4c(c3)OCO4)CC2)ccc1Br` [ST/910382], the IC50 was 21.4 µM.

Turning to `COc1cc2c(cc1S(=O)(=O)c1ccc(COc3cccc(F)c3)cc1)CCN(C)CC2` [DC101675-085A1], the IC50 was more than 50 µM.

For `O=C(NC1CCN(S(=O)(=O)c2ccc(O[C@@H]3CCNC3)cc2)CC1)c1ccc(Cl)c(Cl)c1` [AS45234-005A4B2C1D4], the IC50 is more than 50 µM.

Turning to `N#Cc1ccc(NC(=O)c2cccs2)cc1C#N` [ST/646239], the IC50 is 20.9 µM.

Regarding `O=C1CC(c2ccccc2)N(c2ccc(Cl)cc2)N1` (centres unmarked) [0014C 75***], the IC50 was 26.9 µM.

`CC(NC(=O)c1c(O)c2sccc2[nH]c1=O)c1ccc(F)cc1` (centres unmarked) [ST/1962332]: the IC50 is more than 50 µM.

On to `O=c1cc(-c2ccccc2O)oc2ccccc12` [SC/32543], for which the IC50 was more than 50 µM.

On to `O=C(O)c1cccc2c1C(=O)N(Cc1ccccc1F)C2` [ST/689197], for which the IC50 was more than 50 µM.

Consider `Cc1cc(Cl)ccc1NC(=O)COc1ccccc1NS(=O)(=O)c1cccs1` [N6862-82-1], for which the IC50 is 20 µM.

In the case of `COc1ccc(Br)cc1C(=O)Nc1cc(Cl)ccc1O` [ST/1108634], the IC50 was 16.6 µM.

Turning to `O=C(Nc1nnc(COc2ccc(F)cc2)s1)c1cnccn1` [ST/389620], the IC50 is 33.1 µM.

Turning to `Nc1ccc(Br)cc1-c1nc(N)c2cc(Br)ccc2n1` [N4309-86-B1], the IC50 was more than 50 µM.

As to `CCc1ccc2c(c1)c(=O)c(C(=O)O)cn2CC(F)(F)F` [ST/2184718], the IC50 was 36.3 µM.

In the case of `CN1CC[C@@H](Oc2cc(CNC(=O)c3ccc(Br)cc3)ccc2Cl)C1` [DZ203929-138A2], the IC50 was more than 50 µM.

For `Cc1ccc(O)c(NC(=O)c2cccc(Br)c2)c1` [ST/867278], the IC50 is 21.9 µM.

For the molecule `O=C(Nc1ccc(NC(=O)c2cccs2)cc1Cl)c1ccccc1` [ST/1125044], the IC50 is more than 50 µM.

As to `CN1CCC(Oc2cccc(C(=O)N3CCC(CNS(=O)(=O)c4cccc(F)c4)CC3)c2)CC1` [DS205504-126A32B5C8], the IC50 is more than 50 µM.

Turning to `O=S(=O)(Nc1cccc(Cl)c1Cl)c1cccs1` [ST/906545], the IC50 was 21.4 µM.

Consider `CN1CCN(CC(=O)Nc2ccc(C(F)(F)F)cc2)CC1c1ccccc1` (centres unmarked) [ST/961463], for which the IC50 was more than 50 µM.

In the case of `COc1ccc2cc(C(=O)Nc3ccc(F)c(Cl)c3)[nH]c2c1` [ST/803999], the IC50 is 11.2 µM.

Regarding `CC1CSC(N(C(=O)CCc2ccco2)c2ccc(Cl)cc2)=N1` (centres unmarked) [ST/816400], the IC50 is 21.9 µM.

Consider `Cc1ccc2[nH]c(COc3ccc(Cl)cc3)nc2c1` [ST/743143], for which the IC50 was 29.5 µM.

Regarding `Cc1ccc(C2=NN(S(=O)(=O)c3cc(Cl)sc3Cl)C(C)C2)cc1` (centres unmarked) [U20197/52/63], the IC50 was 32.4 µM.

Regarding `Cc1c(-c2noc(-c3ccc(OC(C)C)c(Cl)c3)n2)ccc2c1CCNC2` [N11266-30-A1], the IC50 was 22.4 µM.

Consider `Cc1cc(Cl)ccc1NC(=O)CN(c1ccccc1C(=O)O)S(=O)(=O)c1cccs1` [N9272-3-4], for which the IC50 was more than 50 µM.
